Consider eight compounds from article PMC7546004, “Targeting BCL10 by small peptides for the treatment of B cell lymphoma” (Theranostics, 2020).

Read-outs that look alike come from different tables or passages of the source. Square brackets hold non-standard residues; d marks the D form. Ends that are not written are not given here. Peptide text beside a SMILES is read from it. * marks the point of attachment. Cbz = O=C(OCc1ccccc1)*

The test system of data set [1] is HBL1 cells. Type of data set: cell-based. From the text:
(§1) GraphPad Prism software was used to determine GI50 values.

Data set [2] deals with NF-κB target genes in TMD8 cells. The data set is described as follows: RNA-seq gene set enrichment analysis of NF-κB target genes. It is filed as cell-based. To be noted: BCL10-P4 5 μM, ibrutinib 10 nM, 8 h and 24 h, duplicate. As to the method:
1:100 dilution for 15 min at room temperature in the dark. Signals from FL1 and FL3 channels were collected by MACSQuant analyzer and data were analyzed using FloJo (Ashland, OR). Early apoptosis was defined as AnnexinV+/PI-, and late apoptosis as AnnexinV+/PI+. Percentage of apoptotic cells were the sum of early and late apoptotic cells.
For cell cycle analysis, cells were washed twice with cold PBS and fixed in 70% ethanol overnight at 4°C. Fixed cells were collected at 1800 rpm for 10 min and stained with PBS containing PI and DNase-free RNase A (Sigma-Aldrich) for 1h at room temperature in the dark. DNA content was measured by BD LSRII flow cytometer and data were analyzed in FloJo. […]
All extracts were treated with DNase in column during RNA purification. RNA integrity was determined on an Agilent 2100 Bioanalyzer (Agilent Technologies, SantaClara, CA). […]
RNAseq raw data are analyzed with the Salmon software 30 using default settings. Log2Fold changes and P values of differentiation gene expression between different samples are calculated using the Bioconductor - DESeq2 R package 31 using default settings. […]
Six-week-old female NOD prkdc-/- IL-2Rg-/- (NCG) mice purchased from GemPharmatech Co., Lt d we re raised in a SPF- level Laboratory Animal Room. […] Tumor volumes were monitored by a digital caliper every other day and calculated using the formula: (smallest diameter2 x largest diameter)/2. […]

The subject of another data set is TMD8 cells. Type of data set: cell-based, human.
Description: as §1

The target of data set [3] is T1, BCL10 (Homo sapiens, UniProt O95999).
T1 sequence (O95999 1-233): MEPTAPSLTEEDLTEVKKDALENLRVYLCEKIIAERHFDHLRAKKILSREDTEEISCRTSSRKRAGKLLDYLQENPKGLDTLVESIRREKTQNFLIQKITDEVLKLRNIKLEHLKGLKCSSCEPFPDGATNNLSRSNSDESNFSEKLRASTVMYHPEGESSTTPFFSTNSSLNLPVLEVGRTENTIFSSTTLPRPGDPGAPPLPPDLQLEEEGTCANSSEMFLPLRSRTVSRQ
The data set is described as follows: In vitro BCL10 filamentation assay (negative-stain electron microscopy). Type of data set: biochemical. The conditions noted are these: MBP-BCL10 and peptide premixed at 1:1 or 1:2 molar ratio, RT 30 min, then TEV cleavage. The procedure: MBP-BCL10 was expressed and purified as previously described. MBP-BCL10 and BCL10 peptide inhibitors were premixed at a 1:1 or 1:2 molar ratio at RT for 30 minutes before adding TEV to cleave the MBP tag. 5 μL of reaction mixture was applied to copper grids (Beijing Zhongjingkeyi Technology Co., Cat. No. BZ10024a), where it remained for 1 minute and was then negatively stained with 3% uranyl acetate for 1 minute, air-dried and imaged with a JEM-1230 TEM at 100 keV.

The next data set deals with BPH-1. The data set is described as follows: Growth inhibition, noncancerous cell line. Type of data set: cell-based.
Description: as §1

Another data set relates to 293T. The data set is described as follows: Growth inhibition, noncancerous cell line. It is filed as cell-based.
Description: as §1

The subject of the next data set is Jurkat cells. The data set is described as follows: Growth inhibition. To be noted: Figure S3E; exposure time not given. Type of data set: cell-based.
Description: as §1

Another data set deals with DLBCL cell lines. Type of data set: cell-based.
Description: as §1

Data set [4] has as its system ABC-DLBCL cells (HBL1 and TMD8 cell lines). Type of data set: cell-based. The conditions noted are these: 72 h.
Description: as §1

Data set [5] deals with HBL1 cells. The data set is described as follows: Intracellular pharmacokinetics, BCL10-P4 versus DRI-BCL10-P4. The conditions noted are these: Figure 6B and S7A; western blot. The procedure:
MBP-Bcl10 was expressed and purified as previously described {Qiao, 2013 #85}. Purified
mM NaCl, 1% NP-40) at 4 °C for 1 hour, followed by addition of 5% BSA blocked S t re ptavidin (SAV)
Immunoprecipitant were washed 5 times with IP buffer and separated by SDS-PA G E . […]
(§2) hActin- F: 5’-[…]-3’
(§3) hIL6-R: 5’- […]-3 ’.
(§4) hBcl10-F: 5’-[…] TAGAAA-3’
(§5) hBcl10-R: 5’-[…] T-3’
(§6) 1x105 HBL1, TMD8, OCl-LY 1 , OCl-LY 1 , U2932, MD901 or RCK8 cells were seeded in 12-well plate
(§7) wa sh e d and lysed with RIPA buffer.
(§8) immunoblotting with Streptavidin (Cell signaling, cat. #3999S). […]

Data set [6] has as its system HBL1, TMD8 and OCI-LY1 cells. The data set is described as follows: Intracellular pharmacokinetics of biotinylated BCL10-P4 (streptavidin blot). It is filed as in vitro ADME. The procedure: as §2, §3, §4, §5, §6, §7, §8
The target in data set [7] is T1, BCL10. The experiment in a line: Western blot of BCL10 protein level in DLBCL cells. The conditions noted are these: HBL1 cells, BCL10-P4 1 h pretreatment, then MG132 or chloroquine 3 h; Figure 4H. The arrangement: Western blot of BCL10 in cells treated with different concentrations of BCL10-P4 for 8 h; endogenous in cells; host or cells: HBL1, TMD8, OCI-LY1 DLBCL cells. It is filed as cell-based. As to the method: Cell pellets were lysed in RIPA buffer (50 mM Tris at pH 8.0, 150 mM NaCl, 1% NP-40, 1 mM EDTA, and 1X protease inhibitor cocktail) or RIPA buffer containing 0.1% SDS. Equal amounts of protein extracts were separated by SDS-PAGE and blotted onto polyvinylidene difluoride (PVDF) membranes.
For orientation: Immunoblotting shows a protein as a band on a membrane.

The subject of the next data set is SUDHL6. It is filed as cell-based, human. To be noted: 24 h.
Description: as §1

For the next data set, the system named is RCK8. Type of data set: cell-based. To be noted: 24 h.
Description: as §1

The next data set concerns SUDHL4. Type of data set: cell-based. To be noted: 24 h.
Description: as §1

In a further data set the test system is OCI-LY3. Type of data set: cell-based. The conditions noted are these: 24 h.
Description: as §1

Another data set has as its system KARPAS422. It is filed as cell-based. The conditions noted are these: 24 h.
Description: as §1

[8] abbreviates: noncancerous cell line, Figure S2C.
Where [9] appears, read: 5 μM biotinylated BCL10-P4, cell lysate blotted with streptavidin.

As to DRQIKIWFQNRRMKWKKEKIIAERHF [BCL10-P1], halving of growth in the data set with HBL1 cells [1] (72 h) (GI50) required 53.9 ± 10.3 µM.

Turning to `C=CC(=O)N1CCC[C@@H](n2nc(-c3ccc(Oc4ccccc4)cc3)c3c(N)ncnc32)C1` [ibrutinib], in data set [2], the “expression of NF-κB target genes (GSEA)” value was “comparable to the effect of ibrutinib treatment”.

Turning to `CC[C@@H](C)[C@@H](NC(=O)[C@@H](CC(C)C)NC(=O)[C@@H](CO)NC(=O)[C@H](N)CCCNC(=N)N)C(=O)N[C@H](CCCCN)C(=O)N[C@H](CCCCN)C(=O)N[C@H](C)C(=O)N[C@H](CCCNC(=N)N)C(=O)N[C@H](CC(C)C)C(=O)N[C@H](Cc1c[nH]cn1)C(=O)N[C@H](CC(=O)O)C(=O)N[C@H](Cc1ccccc1)C(=O)N[C@H](Cc1c[nH]cn1)C(=O)N[C@H](CCCNC(=N)N)C(=O)N[C@H](CCCCN)C(=O)N[C@H](CCCCN)C(=O)N[C@H](Cc1c[nH]c2ccccc12)C(=O)N[C@H](CCCCN)C(=O)N[C@H](CCSC)C(=O)N[C@H](CCCNC(=N)N)C(=O)N[C@H](CCCNC(=N)N)C(=O)N[C@H](CC(N)=O)C(=O)N[C@H](CCC(N)=O)C(=O)N[C@H](Cc1ccccc1)C(=O)N[C@H](Cc1c[nH]c2ccccc12)C(=O)N[C@@H](C(=O)N[C@H](CCCCN)C(=O)N[C@@H](C(=O)N[C@H](CCC(N)=O)C(=O)N[C@H](CCCNC(=N)N)C(=O)N[C@H](CC(=O)O)C(=O)O)[C@H](C)CC)[C@H](C)CC` [DRI-BCL10-P2] (H-[dR][dS][dL][dI][dK][dK][dA][dR][dL][dH][dD][dF][dH][dR][dK][dK][dW][dK][dM][dR][dR][dN][dQ][dF][dW][dI][dK][dI][dQ][dR][dD]-OH; N-terminus and C-terminus assumed), the GI50 (commonly the concentration giving 50% growth inhibition) was determined as 13.6 ± 2.3 µM in the data set with TMD8 cells and 7.64 ± 3.5 µM with HBL1 cells [1]. Further, the “BCL10 filament formation (EM)” value at BCL10 [3] is given as “inhibited Bc10 filament formation in vitro”.

In the case of “DRQIKIWFQNRRMKWKKKGLDTLVESIRREKTQ [BCL10-P5]”, the concentration for 50% growth inhibition (GI50) with TMD8 cells (72 h) came out at 49 ± 33.9 µM; in the data set with HBL1 cells [1] (72 h) it was 66.5 ± 9.2 µM.

Consider “DRQIKIWFQNRRMKWKKRTSSRKRAGKLLDYLQE [BCL10-P4]”, for which the GI50 in the data set with TMD8 cells (72 h, Figure 2B, mean ± SD of three independent experiments, read-out: GI50 TMD8) is 4.7 ± 1.8 µM; with Jurkat cells, 10.3 ± 2.29 µM; in the data set with HBL1 cells [1] (72 h, Figure 2B, mean ± SD of three independent experiments, read-out: GI50 HBL1), 4.2 ± 1 µM; in the data set on DLBCL cell lines (only exception U2932, read-out: GI50 values on most ABC-DLBCL cell lines), < 10 µM; in data set [4] (text summary of Figure 2A-B, read-out: GI50 in the HBL1 and TMD8 cells), 3 to 6 µM. Besides, the “growth inhibition effect on BPH-1” value with BPH-1 (setting [8]) is on record as “neither BCL10-P2 nor BCL10-P4 displayed a growth inhibition effect”. Also, in the data set with 293T (setting [8]), the “growth inhibition effect on 293T” value is given as “neither BCL10-P2 nor BCL10-P4 displayed a growth inhibition effect”. Besides, the “intracellular level after the first 4 h (intracellular stability)” value in the data set on HBL1 cells [5] is given as “decreased rapidly thereafter”. In addition, the “uptake by HBL1 cells and level within the first 4 h” value in the data set with HBL1 cells [5] is reported as “similarly taken up”. The “cellular uptake (entry into cells)” value in data set [6] (5 μM biotinylated BCL10-P4, 1-24 h, cell lysate blotted with streptavidin) is “comparable efficiency”. Besides, in data set [6] (setting [9]), the “time of disappearance from cells” value is given as “approximately 24 h”. The “time of peak intracellular level” value in data set [6] (setting [9]) lay within 1 to 2 h.

For `CC(C)C[C@@H](C=O)NC(=O)[C@H](CC(C)C)NC(=O)[C@H](CC(C)C)NC(=O)OCc1ccccc1` [MG132] (Cbz-Leu-Leu-Leu-aldehyde), on BCL10 [7], the “BCL10 degradation by BCL10-P4 with proteasome or autophagy inhibitor” value was “negligibly prevented BCL10 degradation”.

As for “DRQIKIWFQNRRMKWKKRHFDHLRAKKILSR [BCL10-P2]”, the GI50 stood at 5.42 ± 3.09 µM in the data set with SUDHL6; 3.35 ± 1.1 µM with TMD8 cells (72 h); 5.1 ± 0.8 µM with HBL1 cells [1] (72 h); 16 ± 12.3 µM in the data set on RCK8; 2.56 ± 0.23 µM with SUDHL4; 5.51 ± 0.9 µM with OCI-LY3. The GI50 was < 10 µM with DLBCL cell lines, 3 to 6 µM in data set [4] and 5.39 ± 0.2 µM in the data set on KARPAS422. For the same compound, the “growth inhibition effect on BPH-1” value with BPH-1 is recorded as “neither BCL10-P2 nor BCL10-P4 displayed a growth inhibition effect”. Further, the “growth inhibition effect on 293T” value in the data set on 293T was “neither BCL10-P2 nor BCL10-P4 displayed a growth inhibition effect”.

As for `CCN(CC)CCCC(C)Nc1ccnc2cc(Cl)ccc12` (centres unmarked) [CHL, chloroquine], the “BCL10 degradation by BCL10-P4 with proteasome or autophagy inhibitor” value on BCL10 [7] is “prevented BCL10 degradation by BCL10-P4”.
